How the values were obtained:
[1] = test system: LoVo; assay: Potency index, ratio of sulforaphane IC50 to compound IC50 for human LoVo cells; type: functional
[2] = test system: LoVo; assay: Potency index, ratio of benzyl isothiocyanate IC50 to compound IC50 for human LoVo cells; type: functional
[3] = test system: LoVo; assay: Cytotoxicity against human LoVo cells after 72 hrs by sulforhodamine B assay; type: functional, cell-based
[4] = Cytotoxicity against human LoVo/DX cells after 72 hrs by sulforhodamine B assay; type: functional, cell-based
[5] = Resistance index, ratio of IC50 for human LoVo/DX cells to IC50 for human LoVo cells; type: functional
[6] = test system: 4T1; assay: Anti-tumor activity against mouse 4T1 cells implanted in BALB/c mdb mouse assessed as tumor growth inhibition at 100 umol/kg, ip administered five times weekly measured on day 15 post cell innoculum relative to control; type: functional; conditions: 4T1, ip, 360 h, read-out: TGI
[7] = test system: 4T1; assay: Anti-tumor activity against mouse 4T1 cells implanted in BALB/c mdb mouse assessed as tumor growth inhibition at 100 umol/kg, ip administered five times weekly measured on day 29 post cell innoculum relative to control; type: functional; conditions: 4T1, ip, 696 h, read-out: TGI
[8] = test system: Mus musculus; assay: Toxicity in BALB/c mdb mouse implanted with mouse 4T1 cells assessed as body weight loss at 100 umol/kg, ip administered five times weekly measured 3 times weekly during compound dosing; type: organism-based; conditions: in vivo
[9] = test system: Mus musculus; assay: Hepatotoxicity in BALB/c mdb mouse implanted with mouse 4T1 cells assessed as liver weight at 100 umol/kg, ip administered five times weekly measured at 29 day post cell innoculum (reference value: 1.2 +/- 0.13 g); type: toxicity, organism-based; conditions: in vivo, 696 h
[10] = test system: Mus musculus; assay: Nephrotoxicity in BALB/c mdb mouse implanted with mouse 4T1 cells assessed as kidney weight at 100 umol/kg, ip administered five times weekly measured at 29 day post cell innoculum (reference value: 0.136 +/- 0.006 g); type: toxicity, organism-based; conditions: in vivo, 696 h
[11] = test system: Mus musculus; assay: Toxicity in BALB/c mdb mouse implanted with mouse 4T1 cells assessed as spleen weight at 100 umol/kg, ip administered five times weekly measured at 29 day post cell innoculum (reference value: 0.603 +/- 0.133 g); type: organism-based; conditions: in vivo, 696 h
[12] = test system: Mus musculus; assay: Toxicity in BALB/c mdb mouse implanted with mouse 4T1 cells assessed as lung weight at 100 umol/kg, ip administered five times weekly measured at 29 day post cell innoculum (reference value: 0.2 +/- 0.018 g); type: organism-based; conditions: in vivo, 696 h
[13] = test system: 4T1; assay: Anti-tumor activity against mouse 4T1 cells implanted in BALB/c mdb mouse assessed as lung metastasis at 100 umol/kg, ip administered five times weekly measured at 29 days post cell innoculum (reference value: 56 +/- 25); type: functional
[14] = test system: Mus musculus; assay: Toxicity in BALB/c mdb mouse implanted with mouse 4T1 cells assessed as WBC level at 100 umol/kg, ip administered five times weekly measured at 29 day post cell innoculum (reference value: 212.3 +/- 82.8 10^3/uL); type: organism-based; conditions: in vivo, 696 h
[15] = test system: Mus musculus; assay: Toxicity in BALB/c mdb mouse implanted with mouse 4T1 cells assessed as RBC level at 100 umol/kg, ip administered five times weekly measured at 29 day post cell innoculum (reference value: 8.6 +/- 0.9 10^6/uL); type: organism-based; conditions: in vivo, 696 h
[16] = test system: Mus musculus; assay: Toxicity in BALB/c mdb mouse implanted with mouse 4T1 cells assessed as hemoglobin level at 100 umol/kg, ip administered five times weekly measured at 29 day post cell innoculum (reference value: 15.1 +/- 1.5 g/dl); type: organism-based; conditions: in vivo, 696 h
[17] = test system: Mus musculus; assay: Toxicity in BALB/c mdb mouse implanted with mouse 4T1 cells assessed as hematocrit at 100 umol/kg, ip administered five times weekly measured at 29 day post cell innoculum (reference value: 39.9 +/- 3.7 %); type: organism-based; conditions: in vivo, 696 h
[18] = test system: Mus musculus; assay: Toxicity in BALB/c mdb mouse implanted with mouse 4T1 cells assessed as serum PLT level at 100 umol/kg, ip administered five times weekly measured at 29 day post cell innoculum (reference value: 972 +/- 157 10^3/uL); type: organism-based; conditions: in vivo, 696 h
[19] = test system: Mus musculus; assay: Toxicity in BALB/c mdb mouse implanted with mouse 4T1 cells assessed as serum ALT level at 100 umol/kg, ip administered five times weekly measured at 29 day post cell innoculum (reference value: 23.8 +/- 2.2 U/L); type: organism-based; conditions: in vivo, 696 h
[20] = test system: Mus musculus; assay: Toxicity in BALB/c mdb mouse implanted with mouse 4T1 cells assessed as serum AST level at 100 umol/kg, ip administered five times weekly measured at 29 day post cell innoculum (reference value: 136 +/- 10.3 U/L); type: organism-based; conditions: in vivo, 696 h
[21] = test system: Mus musculus; assay: Toxicity in BALB/c mdb mouse implanted with mouse 4T1 cells assessed as serum creatinine level at 100 umol/kg, ip administered five times weekly measured at 29 day post cell innoculum (reference value: 9.3 +/- 1.2 umol/L); type: organism-based; conditions: in vivo, 696 h
[22] = test system: Mus musculus; assay: Toxicity in BALB/c mdb mouse implanted with mouse 4T1 cells assessed as serum urea level at 100 umol/kg, ip administered five times weekly measured at 29 day post cell innoculum (reference value: 3.8 +/- […]); type: organism-based; conditions: in vivo, 696 h
[23] = test system: HL-60; assay: Cytotoxicity against human HL60 cells after 72 hrs by sulforhodamine B assay; type: functional, cell-based; conditions: HL-60, 72 h
[24] = test system: HL60/MX2; assay: Cytotoxicity against human HL60/MX2 cells after 72 hrs by sulforhodamine B assay; type: functional, cell-based; conditions: HL60/MX2, 72 h
[25] = Resistance index, ratio of IC50 for human HL60/MX2 cells to IC50 for human HL60 cells; type: functional

| Compound | IC50 [3] | IC50 [4] | further results |
| --- | --- | --- | --- |
| CC(C)COP(=O)(CCCCCCN=C=S)OCC(C)C | 2.7 µM | 9.2 µM | Ratio IC50 [1]: 10; Ratio IC50 [2]: 5; Ratio IC50 [5]: 3.4; inhibition in vivo at 100 µmol/kg [6]: 31%; inhibition in vivo at 100 µmol/kg [7]: 14.3%; Activity [8]: <= 10%; Activity [9]: 1.25 g; Activity [10]: 0.127 g; Activity [11]: 0.578 g; Activity [12]: 0.199 g; Activity [13]: 58; Activity [14]: 311.2 ×10³ /uL; Activity [15]: 10.8 ×10⁶ /uL; Activity [16]: 19.2 g/dL; Activity [17]: 53%; Activity [18]: 831 ×10³ /uL; Activity [19]: 33.1 U/L; Activity [20]: 153.6 U/L; Activity [21]: 8.2 µmol/L; Activity [22]: 5.2 mmol/L |
| O=C1c2c(O)ccc(O)c2C(=O)c2c(NCCNCCO)ccc(NCCNCCO)c21 [MITOXANTRONE] |  |  | IC50 [23]: 0.004 µM; IC50 [24]: 0.148 µM; Ratio IC50 [25]: 37 |
| CCOP(=O)(CCN=C=S)OCC | 4.5 µM | 6.1 µM |  |
| C=CCN=C=S [ALLYL ISOTHIOCYANATE] | 21.2 µM | 29.3 µM |  |
| O=P(CCCCN=C=S)(OCC(F)(F)F)OCC(F)(F)F | 4.9 µM | 5.7 µM |  |
| CCOP(=O)(CCCCN=C=S)OCC | 4.6 µM | 10.2 µM |  |
| COP(=O)(CCCCCN=C=S)OC | 5 µM | 9.4 µM |  |
| O=P(CCCCN=C=S)(OCc1ccccc1)OCc1ccccc1 | 3.8 µM | 8.4 µM |  |
| CC[C@H](C)OP(=O)(CCCCN=C=S)O[C@@H](C)CC | 4.2 µM | 4.5 µM |  |
| CC(C)OP(=O)(CCN=C=S)OC(C)C | 2.7 µM | 3.6 µM | Ratio IC50 [1]: 10; Ratio IC50 [2]: 5 |
| O=P(CCCN=C=S)(Oc1ccccc1)Oc1ccccc1 | 4.2 µM | 10.2 µM |  |
| O=P(CCCN=C=S)(OCC(F)(F)F)OCC(F)(F)F | 3.9 µM | 4.7 µM |  |
| O=P(CCCCCCN=C=S)(OCC(F)(F)F)OCC(F)(F)F | 4.2 µM | 8.8 µM |  |
| CC(C)OP(=O)(CCCCN=C=S)OC(C)C | 2.5 µM | 5 µM | Ratio IC50 [1]: 10; Ratio IC50 [2]: 5 |
| CC(C)OP(=O)(CCCCCN=C=S)OC(C)C | 2.6 µM | 7.9 µM | Ratio IC50 [1]: 10; Ratio IC50 [2]: 5 |
| CC(C)[C@@H]1CC[C@@H](C)C[C@H]1OP(=O)(CCCCN=C=S)O[C@@H]1C[C@H](C)CC[C@H]1C(C)C | 5.1 µM | 5.8 µM |  |
| O=P(CCCCCCN=C=S)(OCc1ccccc1)OCc1ccccc1 | 4.6 µM | 9.2 µM |  |
| O=P(CCCCCN=C=S)(Oc1ccccc1)Oc1ccccc1 | 2.2 µM | 4.6 µM | Ratio IC50 [1]: 10; Ratio IC50 [2]: 5 |
| CC(C)COP(=O)(CCCCCN=C=S)OCC(C)C | 2.4 µM | 5.1 µM | Ratio IC50 [1]: 10; Ratio IC50 [2]: 5 |
| CC(C)(C)COP(=O)(CCCCCN=C=S)OCC(C)(C)C | 8.9 µM | 10.8 µM |  |
| CC(C)COP(=O)(CCCCN=C=S)OCC(C)C | 3.3 µM | 10.4 µM |  |
| CC(C)(C)COP(=O)(CCCCN=C=S)OCC(C)(C)C | 10.2 µM | 10.6 µM |  |

From ChEMBL document CHEMBL4028815, “Novel phosphonate analogs of sulforaphane: Synthesis, in vitro and in vivo anticancer activity” (Eur J Med Chem, 2017)
